From patent US20260041683A1, “Compounds with Anti-Acinetobacter Baumannii Activity” (University of Kentucky Research Foundation, priority 2022, published 2026)
Converted amounts (≈) assume the structure as drawn.

Tests used:
[1] = tested on: all 43 strains of A. baumannii (41 CDC strains and 2 ATCC strains); assay: MIC value statistics for all A. baumannii strains; type: cell-based, Acinetobacter baumannii; conditions: of 43 A. baumannii strains
Method: All bacterial strains listed above were stored at −80° C. All strains were streaked on Mueller-Hinton (MH) plates and allowed to grow at 37° C. overnight. Enough colonies were scraped from the plate and suspended in MH broth with vortexing to reach an attenuance at 600 nm (OD600) of ˜0.5. The resulting culture was diluted 1:1000 and added to the prepared serially doubly diluted compound solutions in 96-well plates. […]. For each row, one well was reserved for sterile control (which consisted of 200 μL of MH medium) and another well was reserved for growth control (which consisted of 100 μL of MH medium seeded with 100 μL of bacterial culture).
Having established that the observed activity is selective to A. baumannii, all synthesized compounds were tested against a panel of antibiotic resistant A. baumannii from the Antimicrobial Resistant (AR) Isolate Bank from the CDC along with strains I and J (Table Si). […]. Based on this statistical analysis, the best compound is 5e followed closely by 3e.

Ab ATCC 19606 (strain I) = assay: MIC determination (double dilution, Mueller-Hinton broth); type: cell-based, Acinetobacter baumannii; conditions: Acinetobacter baumannii, ATCC19606; Table 1; control strain; read-out: MIC Ab ATCC 19606
Method: All bacterial strains listed above were stored at −80° C. All strains were streaked on Mueller-Hinton (MH) plates and allowed to grow at 37° C. overnight. […] The resulting culture was diluted 1:1000 and added to the prepared serially doubly diluted compound solutions in 96-well plates. For M. smegmatis, a 1:100 dilution of the bacteria was done in MH. All MIC values were determined using 96-well plates with low evaporation seals at least in duplicate. For each row, one well was reserved for sterile control (which consisted of 200 μL of MH medium) and another well was reserved for growth control (which consisted of 100 μL of MH medium seeded with 100 μL of bacterial culture).
(§1) Minimum inhibitory concentrations (MIC) of all compounds from the series were measured in liquid cultures of different Ab strains by a double-dilution method in Mueller-Hinton broth. Initially, the activity of all 46 compounds against Ab ATCC 19606 (a control strain) and Ab ATCC BAA1605 (a multidrug-resistant strain) (Table 1; data shown for 27 representative compounds) was measured.

[2] = tested on: Ab ATCC BAA1605 (strain J, multidrug-resistant); assay: MIC determination; type: cell-based; conditions: Acinetobacter baumannii; Table 1; multidrug-resistant strain; read-out: MIC Ab ATCC BAA 1605
Method: All bacterial strains listed above were stored at −80° C. All strains were streaked on Mueller-Hinton (MH) plates and allowed to grow at 37° C. overnight. Enough colonies were scraped from the plate and suspended in MH broth with vortexing to reach an attenuance at 600 nm (OD600) of ˜0.5. The resulting culture was diluted 1:1000 and added to the prepared serially doubly diluted compound solutions in 96-well plates. For M. smegmatis, a 1:100 dilution of the bacteria was done in MH. All MIC values were determined using 96-well plates with low evaporation seals at least in duplicate. For each row, one well was reserved for sterile control (which consisted of 200 μL of MH medium) and another well was reserved for growth control (which consisted of 100 μL of MH medium seeded with 100 μL of bacterial culture).
as §1

Row | number of compound/strain combinations with MIC value >64 μg/mL [1] | number of compound/strain combinations with MIC value 0.25 μg/mL [1] | number of compound/strain combinations with MIC value 0.5 μg/mL [1] | number of compound/strain combinations with MIC value 1 μg/mL [1] | number of compound/strain combinations with MIC value ≤0.125 μg/mL [1] | MIC (Ab ATCC 19606 (strain I)) [µg/mL] | MIC [2] [µg/mL] | number of compound/strain combinations with MIC value 2 μg/mL [1] | Structure (SMILES)
1 | 43 |  |  |  |  |  |  |  | CCOC(=O)CNNC(=O)c1cnccn1 [Compound 9g]
2 |  | 15 | 19 | 4 | 5 |  |  |  | O=C(NNc1ccc(Cl)cc1)c1cccnc1 [Compound 11e]
3 | 43 |  |  |  |  |  |  |  | O=C(NNC1CCCCC1)c1cnccn1 [Compound 9h]
4 |  | 10 | 15 | 14 | 4 |  |  |  | CCC(=O)NNc1cccc(F)c1 [Compound 16a]
5 | 43 |  |  |  |  | > 64 | > 64 |  | CCOC(=O)CNNC(=O)c1cccc(F)n1 [Compound 5g]
6 |  | 10 | 18 | 10 | 2 | 2 (≈ 8.65 µM) | 0.5 (≈ 2.16 µM) | 3 | O=C(NNc1cccc(F)c1)c1ccccn1 [Compound 2a]
7 |  | 11 | 26 | 4 | 2 | 0.25 (≈ 1.08 µM) | 0.5 (≈ 2.16 µM) |  | O=C(NNc1cccc(F)c1)c1cccnc1 [Compound 11a]
8 |  | 6 | 19 | 15 |  |  |  | 3 | O=C(NNc1cccc(F)c1)c1cnc2ccccc2n1 [Compound 13a]
9 |  | 3 | 26 | 9 | 1 |  |  | 4 | O=C(NNc1cccc(F)c1)c1ccc(F)cc1F [Compound 1a]
10 |  | 4 | 16 | 19 |  | 0.5 (≈ 1.61 µM) | 0.5 (≈ 1.61 µM) | 4 | O=C(NNc1cccc(F)c1)c1cccc(Br)n1 [Compound 6a]
11 |  | 34 | 2 |  | 7 | 0.125 (≈ 0.441 µM) | 0.0625 (≈ 0.22 µM) |  | O=C(NNc1ccc(Cl)cc1)c1nc(F)ccc1F [Compound 8e]
12 |  | 1 | 8 | 25 |  |  |  | 9 | O=C(NNc1cccc(F)c1)c1cccc(F)n1 [Compound 5a]
13 |  | 21 | 16 |  | 6 |  |  |  | O=C(NNc1cccc(F)c1)c1ccco1 [Compound 15a]
14 | 43 |  |  |  |  | > 64 | > 64 |  | O=C(NNC1CCCCC1)c1cccnc1 [Compound 11h]
15 | 43 |  |  |  |  |  |  |  | CCOC(=O)CNNC(=O)c1ccccn1 [Compound 2g]
16 |  | 8 | 19 | 15 | 1 |  |  |  | O=C(NNc1ccc(Cl)cc1)c1cnccn1 [Compound 9e]
17 | 43 |  |  |  |  | > 64 | > 64 |  | CCOC(=O)CNNC(=O)c1ccc(F)cn1 [Compound 3g]
18 | 43 |  |  |  |  |  |  |  | CCOC(=O)CNNC(=O)c1ccc(F)cc1F [Compound 1g]
19 |  | 19 | 17 | 1 | 6 | 0.25 (≈ 1.09 µM) | 0.5 (≈ 2.17 µM) |  | O=C(NNc1cccc(F)c1)c1ccccc1 [Compound 10a]
20 |  | 28 | 7 |  | 8 | 0.125 (≈ 0.441 µM) | 0.125 (≈ 0.441 µM) |  | O=C(NNc1ccc(Cl)cc1)c1ncc(F)cc1F [Compound 7e]
21 |  | 2 | 8 | 19 |  | 0.5 (≈ 1.61 µM) | 0.5 (≈ 1.61 µM) | 14 | O=C(NNc1cccc(F)c1)c1ccc(Br)cn1 [Compound 4a]
22 |  | 5 | 19 | 18 | 1 |  |  |  | O=C(NNc1cccc(F)c1)c1ncc(F)cc1F [Compound 7a]
23 |  | 11 | 12 | 18 | 2 |  |  |  | O=C(NNc1cccc(F)c1)c1nc(F)ccc1F [Compound 8a]
24 |  | 13 | 25 | 5 |  | 0.25 (≈ 0.928 µM) | 0.25 (≈ 0.928 µM) |  | O=C(NNc1cccc(F)c1)c1cc2ccccc2[nH]1 [Compound 14a]
25 | 43 |  |  |  |  |  |  |  | O=C(NNC1CCCCC1)c1ccc(F)cc1F [Compound 1h]
26 |  | 9 | 22 | 12 |  | 0.5 (≈ 1.67 µM) | 0.25 (≈ 0.837 µM) |  | O=C(NNc1ccc(Cl)cc1)c1cnc2ccccc2n1 [Compound 13e]
